Source: US4198431A, “Alkyl N-(3-trifluoromethylphenyl)-anthranilate” (Hokuriku Pharmaceutical Co., Ltd., priority 1978, dated 1980)
Read-outs that look alike come from different tables or passages of the source.

Tests used:
carrageenin edema [1] = experiment: Carrageenin edema-preventing effect, 5% ointment (Table 2); format: in vivo, rat (Wistar, female); details: for swelling percent (rate of volume increase), 1 hr / preventing rate (rate of edema prevention), 1 hr / swelling percent (rate of volume increase), 2 hr / preventing rate (rate of edema prevention), 2 hr / swelling percent (rate of volume increase), 3 hr / preventing rate (rate of edema prevention), 3 hr / swelling percent (rate of volume increase), 4 hr / preventing rate (rate of edema prevention), 4 hr / swelling percent (rate of volume increase), 5 hr / preventing rate (rate of edema prevention), 5 hr: 5% ointment, 50 mg/rat; for swelling percent (rate of volume increase), 1 hr / swelling percent (rate of volume increase), 2 hr / swelling percent (rate of volume increase), 3 hr / swelling percent (rate of volume increase), 4 hr / swelling percent (rate of volume increase), 5 hr: sole of rear paws; for swelling percent (rate of volume increase), 1 hr: control 37.1%; for preventing rate (rate of edema prevention), 1 hr / preventing rate (rate of edema prevention), 2 hr / preventing rate (rate of edema prevention), 3 hr / preventing rate (rate of edema prevention), 4 hr / preventing rate (rate of edema prevention), 5 hr: calculated in contrast to control; for swelling percent (rate of volume increase), 2 hr: control 74.4%; for swelling percent (rate of volume increase), 3 hr: control 83.9%; for swelling percent (rate of volume increase), 4 hr: control 83.3%; for swelling percent (rate of volume increase), 5 hr: control 80.8%
Protocol: Next, the carrageenin edema-preventing effect [E. Yamazaki, et al., Folia Pharmacologica Japonica, vol. 63, page 302 (1967)] was examined using an ointment containing a five-percent(5%) concentration of active ingredient. Using ten (10) Wistar female rats as one grouping, each test compound was applied at the rate of fifty (50) mg/rat onto the sole of the rear paws […] (30) minutes. After carrageenin was subcutaneously administered (1% carrageenin: 0.1 ml/rat) at the ointment-administered area, the volume was measured over a period of five (5) hours, during which a definite amount (50 mg/rat) of each test compound was administered every hour over a period of four (4) hours after the first measurement of the paw volume. The edema-preventing effect was thus determined in contrast to known compounds. In Table 2 following, the swelling percent (rate of volume increase) is given. The figures in parenthesis indicate the rate of edema prevention which was calculated in contrast to control. In control, carrageenin alone was administered.

[2] = Acute toxicity (LD50) after oral administration; format: in vivo; details: mouse, in vivo
Description: (§1) Using ddY type male mice, acute toxicity (LD50) was examined after oral administration of the methyl, ethyl and butyl esters, respectively.
(§2) In a similar manner, LD50 was examined with regard to the C5 -C8 higher alkyl esters.

carrageenin edema [3] = experiment: Carrageenin edema-preventing effect of ointment, comparison with Bufexamac (Table 3); format: in vivo, rat (Wistar, male); details: ointment 50 mg applied 3, 2 and 1 hours before carrageenin; for swelling (paw volume increase), 1 hr: control 48%; for swelling (paw volume increase), 2 hr: control 90%, ***p 0.02; for swelling (paw volume increase), 3 hr: control 95%, **p 0.05; for swelling (paw volume increase), 4 hr: control 91%; for swelling (paw volume increase), 5 hr: control 88%
Protocol: The butyl ester of the invention and Bufexamac were further compared in ointment form with respect to the edema-preventing effect thereof. Using eight (8) Wistar male rats, weighing 120 to 140 g., as one grouping, 50 mg. each of the test ointments was applied onto the sole of rear paws 3, 2 and 1 hours before an agent which induced inflammation was administered, after the paw volume at one side was measured. Carrageenin (1%: 0.1 ml.) was subcutaneously administered as the inflammation-inducingagent. Thereafter, the paw volume was again measured every hour over a period of five (5) hours. An edema-preventing rate was determined from the volume prior to administration of the inflammation-inducing agent.

ddY type male mice = experiment: Acute toxicity (LD50) after oral administration; format: in vivo; details: oral, mice; comparison with methyl or ethyl ester
Description: as §1, §2

[4] = oral, ddY type male mice, 95% confidence limit in parentheses, read-out: LD50 (95% Confidence Limit)

SMILES	swelling percent (rate of volume increase), 1 hr (carrageenin edema [1]) [%]	preventing rate (rate of edema prevention), 1 hr (carrageenin edema [1]) [%]	swelling percent (rate of volume increase), 2 hr (carrageenin edema [1]) [%]	preventing rate (rate of edema prevention), 2 hr (carrageenin edema [1]) [%]	swelling percent (rate of volume increase), 3 hr (carrageenin edema [1]) [%]	preventing rate (rate of edema prevention), 3 hr (carrageenin edema [1]) [%]	swelling percent (rate of volume increase), 4 hr (carrageenin edema [1]) [%]	preventing rate (rate of edema prevention), 4 hr (carrageenin edema [1]) [%]	swelling percent (rate of volume increase), 5 hr (carrageenin edema [1]) [%]	preventing rate (rate of edema prevention), 5 hr (carrageenin edema [1]) [%]	preventing rate (edema-preventing rate), 1 hr (carrageenin edema [3]) [%]	swelling (paw volume increase), 1 hr (carrageenin edema [3]) [%]	preventing rate (edema-preventing rate), 2 hr (carrageenin edema [3]) [%]	swelling (paw volume increase), 2 hr (carrageenin edema [3]) [%]	preventing rate (edema-preventing rate), 3 hr (carrageenin edema [3]) [%]	swelling (paw volume increase), 3 hr (carrageenin edema [3]) [%]	preventing rate (edema-preventing rate), 4 hr (carrageenin edema [3]) [%]	swelling (paw volume increase), 4 hr (carrageenin edema [3]) [%]	preventing rate (edema-preventing rate), 5 hr (carrageenin edema [3]) [%]	LD50 [2, 4] [mg/kg]	also measured
O=C(O)c1ccccc1Nc1cccc(C(F)(F)F)c1 [N-(3-trifluoromethylphenyl)anthranilic acid, reference compound]	28.4	23.5	61.8	16.9	62.3	25.8	61.4	26.3	61.2	24.2	–	–	–	–	–	–	–	–	–	–	–
CCCCCCCCOC(=O)c1ccccc1Nc1cccc(C(F)(F)F)c1 [Example 12]	–	–	–	–	–	–	–	–	–	–	–	–	–	–	–	–	–	–	–	–	LD50 ([2]; po, n-octyl ester, examined in a similar manner, read-out: LD50): ~5000 mg/kg
CCCCOc1ccc(CC(=O)NO)cc1 [Bufexamac, reference compound]	–	–	–	–	–	–	–	–	–	–	10.4	43	18.9	73	18.9	76	16.5	76	17.2	–	swelling (paw volume increase), 5 hr (carrageenin edema [3]): 72%
COC(=O)c1ccccc1Nc1cccc(C(F)(F)F)c1 [I, Methyl N-(3-trifluoromethylphenyl)anthranilate, reference compound]	–	–	–	–	–	–	–	–	–	–	–	–	–	–	–	–	–	–	–	1620	–
CCOC(=O)c1ccccc1Nc1cccc(C(F)(F)F)c1 [II, Ethyl N-(3-trifluoromethylphenyl)anthranilate, reference compound]	–	–	–	–	–	–	–	–	–	–	–	–	–	–	–	–	–	–	–	1820	–
CCCCOC(=O)c1ccccc1Nc1cccc(C(F)(F)F)c1 [Compound of Invention, n-Butyl N-(3-trifluoromethylphenyl)anthranilate]	23.5	36.7	47.3	36.4	54.8	34.7	55.5	33.4	50.0	38.1	10.4	43	30	63	28.4	68	24.2	69	22.7	3100	LD50 relative to that of the corresponding methyl or ethyl ester (ddY type male mice): 1/2; edema-preventing effect as compared to the known compound (carrageenin edema [1]; versus N-(3-trifluoromethylphenyl)anthranilic acid, Table 2): improved edema-preventing effect; swelling (paw volume increase), 5 hr (carrageenin edema [3]): 68%
